pIC50: −log10 of the molar value. *1 amine or outer side, *2 acyl side, *3 side chain or, on linkers, in order; H or OH if unused. Where a SMILES comes first, the peptide text is derived from it. Bridges are numbered along the chain shown (N, C = ends). [ ]: non-standard residue; d: D form. The star is where a group is joined. X197 = CN([C@@H](Cc1cc(Cl)ccc1-c1ccc(=O)[nH]c1)C(=O)[*:2])[*:1]; X203 = CN([C@@H](Cc1cc(Cl)ccc1-c1cnn(C(F)F)c1)C(=O)[*:2])[*:1]; X147 = CCSc1ccc(-c2ccc(Cl)cc2C[C@@H](C(=O)[*:2])N(C)[*:1])cn1; X158 = CCOc1ccc(-c2ccc(Cl)cc2C[C@@H](C(=O)[*:2])N(C)[*:1])cn1; X183 = CN([C@@H](Cc1cc(Cl)ccc1-c1ccc2nncn2c1)C(=O)[*:2])[*:1]; X162 = COc1cncc(-c2ccc(Cl)cc2C[C@@H](C(=O)[*:2])N(C)[*:1])c1; X192 = COc1cccc(-c2ccc(Cl)cc2C[C@@H](C(=O)[*:2])N(C)[*:1])c1; NMehhhLys(Me) = CN([C@@H](CCCCCCCN(C)[*:3])C(=O)[*:2])[*:1]; X125 = CN([C@@H](Cc1cc(Cl)ccc1-c1cncc(F)c1)C(=O)[*:2])[*:1]; cBuCO(3,3-F2-1-CF3) = O=C(C1(C(F)(F)F)CC(F)(F)C1)*; Pro(trans-4-F) = O=C(O)[C@@H]1C[C@@H](F)CN1; Gly(cPr) = N[C@H](C(=O)O)C1CC1
Tests used:
CyclinB1/CDK1 = molecular target: T1, CyclinB1/CDK1 (Homo sapiens, UniProt P14635); experiment: Fluorescence Polarization (FP) competitive binding assay, Cyclin B1/Cdk1; settings: 10 nM Cyclin B1/Cdk1, 2 nM FAM probe; average of 2-3 independent experiments; read-out: Cyclin B FP IC50;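 also: fluorescence polarization read after equilibration at room temperature, with IC50 taken from serially diluted dose-response curves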
T1 construct: purchased Eurofins, discovery 14-450

CyclinE1/CDK2 = molecular target: T2, CyclinE1/CDK2 (Homo sapiens, UniProt P24864); experiment: Fluorescence Polarization (FP) competitive binding assay, Cyclin E1/Cdk2; settings: 10 nM Cyclin E1/Cdk2, 2 nM FAM probe; average of 2-3 independent experiments; read-out: Cyclin E FP IC50;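 also: readings taken after two-hour equilibration at room temperature in HEPES buffer with NaCl, DTT, NP-40 and BSA, IC50 fitted from eight-concentration serial dilution series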
T2 construct: purchased Eurofins, discovery 14-475

CyclinA2/CDK2 = molecular target: T3, CyclinA2/CDK2 (Homo sapiens, UniProt P20248); experiment: Fluorescence Polarization (FP) competitive binding assay, Cyclin A2/Cdk2; settings: 8 nM Cyclin A2/Cdk2, 2 nM FAM probe; average of 2-3 independent experiments; read-out: Cyclin A FP IC50;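 also: plates equilibrated two hours at room temperature before polarization reading, IC50 fitted from eight-concentration compound titration curves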
T3 construct: purchased CRELUX Protein Services

NCI-H1048 cells = experiment: MTT proliferation assay, NCI-H1048; assay type: cell-based; settings: 5 days compound exposure, 1:3 serial dilution starting at 10 μM;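 also: Dose-response in 96-well plates over 8 or 10 concentration points, with exposure spanning 3-4 cell doublings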
OVCAR3 cells = experiment: MTT proliferation assay, OVCAR3; assay type: cell-based; settings: 5 days compound exposure, 1:3 serial dilution starting at 10 μM;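 also: compound given as an 8- or 10-point series, one day after plating, with exposure covering roughly 3-4 cell doublings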

Row | SMILES | pIC50 (CyclinB1/CDK1) | pIC50 (CyclinE1/CDK2) | pIC50 (CyclinA2/CDK2) | GI50 (NCI-H1048 cells) [nM] | GI50 (OVCAR3 cells) [nM]
1 | CC(C)C[C@@H]1NC(=O)[C@@H](N(C)C(=O)[C@@H](NC(=O)[C@@H]2C[C@@H](F)CN2C(=O)C2(C(F)(F)F)CC(F)(F)C2)C2CC2)CCCCCCCN(C)C(=O)[C@H](Cc2cc(Cl)ccc2-c2ccc3nncn3c2)N(C)C1=O [Example 178] ({cBuCO(3,3-F2-1-CF3)}-[Pro(trans-4-F)][Gly(cPr)][NMehhhLys(Me)]L[X183]; lactam 3-C) | 7.70 | 5.26 | 7.30 | 1180 | 2570
2 | CC(C)C[C@@H]1NC(=O)[C@@H](N(C)C(=O)[C@@H](NC(=O)[C@@H]2C[C@@H](F)CN2C(=O)C2(C(F)(F)F)CC(F)(F)C2)C2CC2)CCCCCCCN(C)C(=O)[C@H](Cc2cc(Cl)ccc2-c2ccc(=O)[nH]c2)N(C)C1=O [Example 180] ({cBuCO(3,3-F2-1-CF3)}-[Pro(trans-4-F)][Gly(cPr)][NMehhhLys(Me)]L[X197]; lactam 3-C) | 7.70 | 5.73 | 7.52 | 730 | 1220
3 | CCSc1ccc(-c2ccc(Cl)cc2C[C@H]2C(=O)N(C)CCCCCCC[C@H](N(C)C(=O)[C@@H](NC(=O)[C@@H]3C[C@@H](F)CN3C(=O)C3(C(F)(F)F)CC(F)(F)C3)C3CC3)C(=O)N[C@@H](CC(C)C)C(=O)N2C)cn1 [Example 181] ({cBuCO(3,3-F2-1-CF3)}-[Pro(trans-4-F)][Gly(cPr)][NMehhhLys(Me)]L[X147]; lactam 3-C) | 7.70 | 5.80 | 7.40 | 240 | 420
4 | CCOc1ccc(-c2ccc(Cl)cc2C[C@H]2C(=O)N(C)CCCCCCC[C@H](N(C)C(=O)[C@@H](NC(=O)[C@@H]3C[C@@H](F)CN3C(=O)C3(C(F)(F)F)CC(F)(F)C3)C3CC3)C(=O)N[C@@H](CC(C)C)C(=O)N2C)cn1 [Example 182] ({cBuCO(3,3-F2-1-CF3)}-[Pro(trans-4-F)][Gly(cPr)][NMehhhLys(Me)]L[X158]; lactam 3-C) | 7.70 | 5.93 | 7.70 | 60 | 130
5 | CC(C)C[C@@H]1NC(=O)[C@@H](N(C)C(=O)[C@@H](NC(=O)[C@@H]2C[C@@H](F)CN2C(=O)C2(C(F)(F)F)CC(F)(F)C2)C2CC2)CC=CCCCCNC(=O)[C@H](Cc2cc(F)ccc2-c2cnn(C)c2)N(C)C1=O [Example 195] | 7.70 | 6.74 | 7.40 | 10 | 10
6 | COc1cccc(-c2ccc(Cl)cc2C[C@H]2C(=O)N(C)CCCCCCC[C@H](N(C)C(=O)[C@@H](NC(=O)[C@@H]3C[C@@H](F)CN3C(=O)C3(C(F)(F)F)CC(F)(F)C3)C3CC3)C(=O)N[C@@H](CC(C)C)C(=O)N2C)c1 [Example 197] ({cBuCO(3,3-F2-1-CF3)}-[Pro(trans-4-F)][Gly(cPr)][NMehhhLys(Me)]L[X192]; lactam 3-C) | 7.70 | 6.51 | 7.70 | 50 | 100
7 | CC(C)C[C@@H]1NC(=O)[C@@H](N(C)C(=O)[C@@H](NC(=O)[C@@H]2C[C@@H](F)CN2C(=O)C2(C(F)(F)F)CC(F)(F)C2)C2CC2)CCCCCCCN(C)C(=O)[C@H](Cc2cc(Cl)ccc2-c2cncc(F)c2)N(C)C1=O [Example 198] ({cBuCO(3,3-F2-1-CF3)}-[Pro(trans-4-F)][Gly(cPr)][NMehhhLys(Me)]L[X125]; lactam 3-C) | 7.70 | 5.84 | 7.30 | 50 | 50
8 | COc1cncc(-c2ccc(Cl)cc2C[C@H]2C(=O)N(C)CCCCCCC[C@H](N(C)C(=O)[C@@H](NC(=O)[C@@H]3C[C@@H](F)CN3C(=O)C3(C(F)(F)F)CC(F)(F)C3)C3CC3)C(=O)N[C@@H](CC(C)C)C(=O)N2C)c1 [Example 199] ({cBuCO(3,3-F2-1-CF3)}-[Pro(trans-4-F)][Gly(cPr)][NMehhhLys(Me)]L[X162]; lactam 3-C) | 7.70 | 6.04 | 7.52 | 30 | 50
9 | CC(C)C[C@@H]1NC(=O)[C@@H](N(C)C(=O)[C@@H](NC(=O)[C@@H]2C[C@@H](F)CN2C(=O)C2(C(F)(F)F)CC(F)(F)C2)C2CC2)CCCCCCCN(C)C(=O)[C@H](Cc2cc(Cl)ccc2-c2cnn(C(F)F)c2)N(C)C1=O [Example 200] ({cBuCO(3,3-F2-1-CF3)}-[Pro(trans-4-F)][Gly(cPr)][NMehhhLys(Me)]L[X203]; lactam 3-C) | 7.70 | 6.05 | 7.52 | 40 | 30
